The values below come from PubChem BioAssay (NCI).

Each structure is given as a SMILES string. Values joined by “and” are separate entries in the source; they are usually repeats but may differ in a detail not shown here. Equal entries are not always repeated.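 Cultured in 96-well plates, cells were exposed to test compound for 48 hours across five concentrations. GI50 is the concentration that inhibits growth by half. TGI is the concentration that stops growth completely.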 A value given as a limit tells only on which side of the number the result lay.

Some test systems named below: CAKI-1 renal; DMS 114 small cell lung; HOP-92 NSCLC; LXFL 529 NSCLC; NCI/ADR-RES ovarian; RXF 393 renal; SK-OV-3 ovarian; UACC-62 melanoma; PC-3 prostate; T-47D breast.
Common to all, as to assay: inhibition of tumour cell growth, NCI panel, 48 h

Turning to `CCCS(=O)c1nc(COC(=O)NC)c(COC(=O)NC)n1C` (configuration not stated), the TGI with CAKI-1 renal, in the assay on DMS 114 small cell lung, in the assay with HOP-92 NSCLC, with LXFL 529 NSCLC, in the assay with NCI/ADR-RES ovarian and with RXF 393 renal was above 100 µM in each case. The TGI in the assay on SK-OV-3 ovarian and with UACC-62 melanoma was above 100 µM each time.

`COc1cc(C2c3cc4c(cc3[C@@H](Nc3ccc([N+](=O)[O-])cc3)C3COC(=O)[C@H]23)OCO4)cc(OC)c1O` (some centres not stated): the GI50 was 0.154 µM in the assay on CAKI-1 renal; 0.614 µM in the assay with DMS 114 small cell lung; 0.393 µM with HOP-92 NSCLC; 0.798 µM in the assay with SK-OV-3 ovarian; 0.547 µM in the assay on UACC-62 melanoma. Moreover, the TGI in the assay with CAKI-1 renal was 0.941 µM and 5.06 µM; in the assay with DMS 114 small cell lung it was 6.26 µM; in the assay on LXFL 529 NSCLC it was 78.3 µM; in the assay with NCI/ADR-RES ovarian, above 93.6 µM; in the assay on PC-3 prostate, above 100 µM; in the assay on RXF 393 renal, 6.93 µM. Also, the TGI turned out to be 10.1 µM with SK-OV-3 ovarian and 8.31 µM in the assay on UACC-62 melanoma.

On to `Cc1ccc(C2[C@H]3C(=O)N(c4ccc(Cc5ccc(N6C(=O)[C@@H]7ON(c8ccccc8)C(c8ccc(C)cc8)[C@@H]7C6=O)cc5)cc4)C(=O)[C@H]3ON2c2ccccc2)cc1` (some centres not stated), for which the TGI in the assay on CAKI-1 renal, with DMS 114 small cell lung, in the assay with HOP-92 NSCLC, in the assay with LXFL 529 NSCLC, in the assay on RXF 393 renal and in the assay on SK-OV-3 ovarian was above 100 µM throughout. The same compound yielded a TGI with UACC-62 melanoma above 100 µM.

`CN(C)C(=S)/N=c1\ssc(=S)n1Cc1ccco1`: the TGI in the assay on CAKI-1 renal is above 100 µM; in the assay on DMS 114 small cell lung, above 74 µM; in the assay on HOP-92 NSCLC, above 100 µM; in the assay with LXFL 529 NSCLC, above 100 µM; in the assay on PC-3 prostate, above 100 µM; in the assay on RXF 393 renal, 8.22 µM. Further, the figures for the TGI in the assay on SK-OV-3 ovarian, with T-47D breast and with UACC-62 melanoma were above 100 µM, above 100 µM and above 59.3 µM, respectively.

In the case of `Cc1cc(N(CCC#N)CCC#N)ccc1/C=C(\NC(=O)/C=C/c1ccccc1)C(=O)Nc1ccc(Cl)cc1`, the TGI in the assay on CAKI-1 renal was 98 µM; in the assay on DMS 114 small cell lung it was above 100 µM; in the assay on HOP-92 NSCLC, above 100 µM; in the assay on LXFL 529 NSCLC it was above 100 µM; with NCI/ADR-RES ovarian, above 100 µM; in the assay on PC-3 prostate, above 100 µM. Besides, the TGI in the assay on RXF 393 renal was above 100 µM; with SK-OV-3 ovarian it was above 100 µM; in the assay with T-47D breast, above 100 µM; with UACC-62 melanoma it was above 14.7 µM.
